# In ChEMBL document CHEMBL5291721, “A preclinical secondary pharmacology resource illuminates target-adverse drug reaction associations of marketed drugs” (Nat Commun, 2023):
# Columns and labels:
# Bile salt export pump = Bile salt export pump (Homo sapiens, UniProt O95342); type: functional
# [1] = target: Voltage-gated inwardly rectifying potassium channel KCNH2 (Homo sapiens, UniProt Q12809); type: functional
# Acetylcholinesterase = Acetylcholinesterase (Homo sapiens, UniProt P22303); type: functional
# [2] = target: T1, Alpha-2A adrenergic receptor (Homo sapiens, UniProt P08913)
# T1 sequence (P08913 whole entry): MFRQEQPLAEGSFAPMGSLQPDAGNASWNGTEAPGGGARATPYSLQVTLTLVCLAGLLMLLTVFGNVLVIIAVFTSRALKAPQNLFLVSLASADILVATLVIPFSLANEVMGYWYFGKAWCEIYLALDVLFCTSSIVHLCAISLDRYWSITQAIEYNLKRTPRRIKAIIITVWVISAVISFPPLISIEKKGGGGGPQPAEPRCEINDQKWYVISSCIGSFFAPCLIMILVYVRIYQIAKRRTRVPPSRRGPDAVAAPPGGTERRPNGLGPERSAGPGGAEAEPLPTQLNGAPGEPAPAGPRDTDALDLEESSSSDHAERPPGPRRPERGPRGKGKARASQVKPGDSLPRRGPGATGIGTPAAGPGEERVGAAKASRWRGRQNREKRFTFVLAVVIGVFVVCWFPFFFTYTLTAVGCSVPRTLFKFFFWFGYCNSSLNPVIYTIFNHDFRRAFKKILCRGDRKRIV
# [3] = target: T2, Muscarinic acetylcholine receptor M2 (Homo sapiens, UniProt P08172)
# T2 sequence (P08172 whole entry): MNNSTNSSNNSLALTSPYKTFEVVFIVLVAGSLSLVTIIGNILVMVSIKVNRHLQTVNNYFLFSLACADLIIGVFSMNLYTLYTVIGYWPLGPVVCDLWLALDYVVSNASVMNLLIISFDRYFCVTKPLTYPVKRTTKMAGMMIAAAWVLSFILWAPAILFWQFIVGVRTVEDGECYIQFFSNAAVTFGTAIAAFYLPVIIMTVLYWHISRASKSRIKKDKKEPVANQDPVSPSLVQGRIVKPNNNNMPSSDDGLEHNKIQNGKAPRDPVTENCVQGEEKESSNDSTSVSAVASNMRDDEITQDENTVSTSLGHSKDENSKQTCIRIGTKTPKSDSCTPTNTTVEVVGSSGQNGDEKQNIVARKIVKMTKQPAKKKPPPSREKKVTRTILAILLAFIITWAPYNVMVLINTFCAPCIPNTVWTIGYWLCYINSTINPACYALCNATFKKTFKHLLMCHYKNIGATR
# D(3) dopamine receptor = D(3) dopamine receptor (Homo sapiens, UniProt P35462)
# Sequence of D(3) dopamine receptor (P35462 whole entry): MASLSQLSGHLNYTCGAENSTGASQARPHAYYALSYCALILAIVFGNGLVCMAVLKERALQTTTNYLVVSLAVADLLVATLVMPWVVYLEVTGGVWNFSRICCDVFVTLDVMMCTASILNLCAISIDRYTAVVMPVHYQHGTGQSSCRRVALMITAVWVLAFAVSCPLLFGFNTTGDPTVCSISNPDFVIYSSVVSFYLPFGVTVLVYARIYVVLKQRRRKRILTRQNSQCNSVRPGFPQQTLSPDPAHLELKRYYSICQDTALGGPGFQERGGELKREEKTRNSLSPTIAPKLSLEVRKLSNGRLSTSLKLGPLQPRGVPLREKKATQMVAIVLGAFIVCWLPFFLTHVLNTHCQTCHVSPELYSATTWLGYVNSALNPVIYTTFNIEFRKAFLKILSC
# Prothrombin = Prothrombin (Homo sapiens, UniProt P00734); type: functional
# Histamine H3 receptor = Histamine H3 receptor (Homo sapiens, UniProt Q9Y5N1)
# Sequence of Histamine H3 receptor (Q9Y5N1 whole entry): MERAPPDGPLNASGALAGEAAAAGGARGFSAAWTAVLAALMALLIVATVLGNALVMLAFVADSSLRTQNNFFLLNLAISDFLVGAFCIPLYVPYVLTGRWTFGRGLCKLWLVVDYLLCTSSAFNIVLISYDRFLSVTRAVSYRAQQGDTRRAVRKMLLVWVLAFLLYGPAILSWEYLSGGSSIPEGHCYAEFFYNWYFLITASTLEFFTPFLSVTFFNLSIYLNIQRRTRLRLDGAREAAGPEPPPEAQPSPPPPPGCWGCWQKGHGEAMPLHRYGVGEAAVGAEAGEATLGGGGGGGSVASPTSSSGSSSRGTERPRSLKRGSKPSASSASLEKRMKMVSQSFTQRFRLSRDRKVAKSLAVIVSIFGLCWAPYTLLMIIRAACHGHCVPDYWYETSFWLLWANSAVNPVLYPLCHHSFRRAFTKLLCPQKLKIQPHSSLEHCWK
# [4] = target: 5-hydroxytryptamine receptor 2B (Homo sapiens, UniProt P41595); type: functional, cell-based
# Sequence of 5-hydroxytryptamine receptor 2B (P41595 whole entry): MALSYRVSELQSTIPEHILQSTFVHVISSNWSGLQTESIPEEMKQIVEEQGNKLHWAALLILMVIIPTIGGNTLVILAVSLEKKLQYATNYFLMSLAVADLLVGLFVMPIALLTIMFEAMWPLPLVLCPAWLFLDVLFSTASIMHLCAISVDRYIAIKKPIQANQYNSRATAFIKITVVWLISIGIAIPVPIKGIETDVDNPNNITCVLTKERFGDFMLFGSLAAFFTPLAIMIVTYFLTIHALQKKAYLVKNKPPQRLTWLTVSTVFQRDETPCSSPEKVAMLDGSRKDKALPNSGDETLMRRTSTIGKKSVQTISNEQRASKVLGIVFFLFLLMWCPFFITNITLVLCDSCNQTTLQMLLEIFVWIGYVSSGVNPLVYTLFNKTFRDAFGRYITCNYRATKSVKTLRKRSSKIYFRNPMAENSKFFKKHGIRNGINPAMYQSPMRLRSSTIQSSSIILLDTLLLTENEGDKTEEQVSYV
# [5] = target: T3, Amine oxidase [flavin-containing] A (Homo sapiens, UniProt P21397); type: functional
# T3 sequence (P21397 whole entry): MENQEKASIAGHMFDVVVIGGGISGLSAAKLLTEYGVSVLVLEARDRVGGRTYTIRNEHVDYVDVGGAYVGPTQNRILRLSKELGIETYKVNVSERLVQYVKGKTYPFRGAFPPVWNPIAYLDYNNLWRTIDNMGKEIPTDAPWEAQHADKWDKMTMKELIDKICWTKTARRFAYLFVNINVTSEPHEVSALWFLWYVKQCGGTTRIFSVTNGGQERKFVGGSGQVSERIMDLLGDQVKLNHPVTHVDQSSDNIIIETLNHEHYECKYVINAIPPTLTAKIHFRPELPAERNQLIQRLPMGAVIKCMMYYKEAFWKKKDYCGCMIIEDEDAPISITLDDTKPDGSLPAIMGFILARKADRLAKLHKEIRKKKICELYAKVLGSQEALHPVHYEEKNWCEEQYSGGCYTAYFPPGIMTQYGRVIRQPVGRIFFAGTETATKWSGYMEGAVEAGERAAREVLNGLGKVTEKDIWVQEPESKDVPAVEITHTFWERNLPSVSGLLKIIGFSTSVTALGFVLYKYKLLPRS
# [6] = target: 3',5'-cyclic-AMP phosphodiesterase 4A (Homo sapiens, UniProt P27815); type: functional
# [7] = target: T4, Prostaglandin G/H synthase 1 (Homo sapiens, UniProt P23219); type: functional
# T4 sequence (P23219 whole entry): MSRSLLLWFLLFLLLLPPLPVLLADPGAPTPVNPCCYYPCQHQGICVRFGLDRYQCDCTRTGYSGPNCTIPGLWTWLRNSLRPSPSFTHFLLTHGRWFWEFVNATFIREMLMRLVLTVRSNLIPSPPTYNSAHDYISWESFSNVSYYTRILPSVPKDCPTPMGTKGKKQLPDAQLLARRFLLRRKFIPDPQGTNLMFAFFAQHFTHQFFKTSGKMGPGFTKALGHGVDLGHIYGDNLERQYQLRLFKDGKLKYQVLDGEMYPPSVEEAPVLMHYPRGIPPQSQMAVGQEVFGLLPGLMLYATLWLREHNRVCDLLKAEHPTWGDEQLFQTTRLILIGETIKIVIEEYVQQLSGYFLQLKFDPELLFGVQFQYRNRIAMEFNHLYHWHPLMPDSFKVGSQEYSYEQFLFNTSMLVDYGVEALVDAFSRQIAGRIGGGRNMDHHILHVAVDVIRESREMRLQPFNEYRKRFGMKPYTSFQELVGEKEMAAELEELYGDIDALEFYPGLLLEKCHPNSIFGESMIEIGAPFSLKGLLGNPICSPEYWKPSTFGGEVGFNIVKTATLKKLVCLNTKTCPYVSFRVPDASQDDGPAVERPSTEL
# [8] = target: T4, Prostaglandin G/H synthase 1; type: functional; remark: listed apart in the source
# [9] = target: Sodium-dependent dopamine transporter (Homo sapiens, UniProt Q01959)
# Sequence of Sodium-dependent dopamine transporter (Q01959 whole entry): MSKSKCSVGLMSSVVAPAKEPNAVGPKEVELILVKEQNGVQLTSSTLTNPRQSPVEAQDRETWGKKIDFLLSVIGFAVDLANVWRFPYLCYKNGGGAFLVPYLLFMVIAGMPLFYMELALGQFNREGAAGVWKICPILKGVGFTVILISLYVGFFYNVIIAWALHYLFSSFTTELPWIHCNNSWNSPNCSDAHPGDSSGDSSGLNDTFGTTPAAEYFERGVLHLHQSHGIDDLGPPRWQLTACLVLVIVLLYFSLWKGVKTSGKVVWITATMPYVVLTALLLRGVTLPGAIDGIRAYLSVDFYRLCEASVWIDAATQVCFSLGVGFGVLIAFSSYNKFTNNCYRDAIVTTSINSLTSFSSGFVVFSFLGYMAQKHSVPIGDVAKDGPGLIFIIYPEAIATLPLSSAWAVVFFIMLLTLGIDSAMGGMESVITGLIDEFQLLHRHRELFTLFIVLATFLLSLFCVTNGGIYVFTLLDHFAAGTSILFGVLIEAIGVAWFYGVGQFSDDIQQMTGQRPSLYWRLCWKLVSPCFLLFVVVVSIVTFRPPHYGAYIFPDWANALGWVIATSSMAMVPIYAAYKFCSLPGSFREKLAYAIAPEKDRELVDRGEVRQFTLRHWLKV
# Thromboxane A2 receptor [10] = target: T5, Thromboxane A2 receptor (Homo sapiens, UniProt P21731); type: functional, cell-based
# T5 sequence (P21731 whole entry): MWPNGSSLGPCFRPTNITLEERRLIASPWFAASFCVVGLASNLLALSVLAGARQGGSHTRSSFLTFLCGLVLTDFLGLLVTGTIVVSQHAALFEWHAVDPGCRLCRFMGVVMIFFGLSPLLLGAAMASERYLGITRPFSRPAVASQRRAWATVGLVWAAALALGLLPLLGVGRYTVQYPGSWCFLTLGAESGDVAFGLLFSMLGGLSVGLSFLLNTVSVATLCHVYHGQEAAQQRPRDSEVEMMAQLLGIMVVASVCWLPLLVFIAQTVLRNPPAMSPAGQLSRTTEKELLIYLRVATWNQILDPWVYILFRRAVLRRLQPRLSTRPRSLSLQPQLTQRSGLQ
# Thromboxane A2 receptor [11] = target: T5, Thromboxane A2 receptor; type: functional, cell-based; remark: listed apart in the source
# Note: assay procedure not described here.
# Sequence of Voltage-gated inwardly rectifying potassium channel KCNH2 (Q12809 whole entry): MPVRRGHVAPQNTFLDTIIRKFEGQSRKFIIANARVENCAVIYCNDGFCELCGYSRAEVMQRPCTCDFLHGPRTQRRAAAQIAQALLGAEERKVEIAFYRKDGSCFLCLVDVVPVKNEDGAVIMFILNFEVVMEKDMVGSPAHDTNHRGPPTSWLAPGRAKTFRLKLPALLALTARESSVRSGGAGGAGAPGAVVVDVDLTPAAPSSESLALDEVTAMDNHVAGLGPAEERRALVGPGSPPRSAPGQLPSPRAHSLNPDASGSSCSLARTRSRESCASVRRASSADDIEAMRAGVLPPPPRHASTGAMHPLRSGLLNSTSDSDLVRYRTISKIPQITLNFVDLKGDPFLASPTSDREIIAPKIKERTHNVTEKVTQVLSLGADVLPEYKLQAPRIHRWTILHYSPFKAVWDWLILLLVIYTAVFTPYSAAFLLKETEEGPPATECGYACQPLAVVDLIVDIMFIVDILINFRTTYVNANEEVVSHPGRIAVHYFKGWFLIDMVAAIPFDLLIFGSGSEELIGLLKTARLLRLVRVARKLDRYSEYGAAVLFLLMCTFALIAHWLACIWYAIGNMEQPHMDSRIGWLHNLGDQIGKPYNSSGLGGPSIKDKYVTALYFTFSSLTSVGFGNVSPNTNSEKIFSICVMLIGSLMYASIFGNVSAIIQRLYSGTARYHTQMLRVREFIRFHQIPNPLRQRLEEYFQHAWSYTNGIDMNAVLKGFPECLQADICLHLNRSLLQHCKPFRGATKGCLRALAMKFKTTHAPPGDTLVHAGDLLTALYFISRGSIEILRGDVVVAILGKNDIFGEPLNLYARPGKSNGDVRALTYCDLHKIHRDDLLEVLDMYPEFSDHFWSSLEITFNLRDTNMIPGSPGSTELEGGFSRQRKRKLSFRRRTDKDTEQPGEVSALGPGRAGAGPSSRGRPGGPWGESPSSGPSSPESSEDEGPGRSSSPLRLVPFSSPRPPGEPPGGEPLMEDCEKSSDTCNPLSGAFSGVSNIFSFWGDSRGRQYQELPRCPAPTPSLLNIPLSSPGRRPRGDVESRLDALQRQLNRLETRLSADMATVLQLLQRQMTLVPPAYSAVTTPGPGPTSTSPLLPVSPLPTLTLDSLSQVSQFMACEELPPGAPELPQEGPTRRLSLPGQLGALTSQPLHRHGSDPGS
# Sequence of Bile salt export pump (O95342 whole entry): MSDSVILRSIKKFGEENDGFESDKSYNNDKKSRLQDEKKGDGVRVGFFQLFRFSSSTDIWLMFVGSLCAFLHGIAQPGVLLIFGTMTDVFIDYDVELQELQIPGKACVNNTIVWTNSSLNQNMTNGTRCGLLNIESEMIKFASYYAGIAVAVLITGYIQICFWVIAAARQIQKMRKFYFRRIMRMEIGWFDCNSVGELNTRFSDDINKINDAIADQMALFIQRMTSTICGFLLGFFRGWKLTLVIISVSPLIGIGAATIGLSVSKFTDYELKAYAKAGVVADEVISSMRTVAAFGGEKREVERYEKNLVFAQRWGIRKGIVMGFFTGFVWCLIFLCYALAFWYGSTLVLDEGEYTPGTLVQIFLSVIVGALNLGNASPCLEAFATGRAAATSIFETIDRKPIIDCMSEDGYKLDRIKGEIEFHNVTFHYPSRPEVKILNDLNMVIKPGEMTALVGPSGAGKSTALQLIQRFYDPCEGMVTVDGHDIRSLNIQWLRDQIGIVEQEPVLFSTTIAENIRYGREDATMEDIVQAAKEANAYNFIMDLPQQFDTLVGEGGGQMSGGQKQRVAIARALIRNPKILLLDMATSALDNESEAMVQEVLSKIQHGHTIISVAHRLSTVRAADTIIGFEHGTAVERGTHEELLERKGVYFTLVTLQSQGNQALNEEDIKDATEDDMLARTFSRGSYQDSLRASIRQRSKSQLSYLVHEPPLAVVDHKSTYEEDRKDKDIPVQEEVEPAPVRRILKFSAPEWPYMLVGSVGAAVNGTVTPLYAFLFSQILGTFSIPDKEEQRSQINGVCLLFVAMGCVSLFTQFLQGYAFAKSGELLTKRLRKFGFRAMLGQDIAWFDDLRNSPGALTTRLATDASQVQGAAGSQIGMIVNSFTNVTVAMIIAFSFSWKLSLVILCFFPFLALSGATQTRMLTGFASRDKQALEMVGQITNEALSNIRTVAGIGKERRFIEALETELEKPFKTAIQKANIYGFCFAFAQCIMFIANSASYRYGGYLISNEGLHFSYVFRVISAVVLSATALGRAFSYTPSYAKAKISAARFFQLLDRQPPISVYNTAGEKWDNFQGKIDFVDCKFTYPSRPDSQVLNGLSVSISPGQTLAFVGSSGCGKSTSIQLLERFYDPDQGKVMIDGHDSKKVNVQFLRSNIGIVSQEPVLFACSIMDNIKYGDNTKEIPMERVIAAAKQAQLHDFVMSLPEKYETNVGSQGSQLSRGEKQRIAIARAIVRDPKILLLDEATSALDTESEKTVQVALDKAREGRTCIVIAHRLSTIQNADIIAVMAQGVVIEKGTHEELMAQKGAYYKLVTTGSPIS
SMILES,AC50 (Bile salt export pump),AC50 [1],AC50 (Acetylcholinesterase),AC50 [2],AC50 [3],AC50 (D(3) dopamine receptor),AC50 (Prothrombin),AC50 (Histamine H3 receptor),AC50 [4],AC50 [5],AC50 [6],AC50 [7],AC50 [8],AC50 [9],AC50 (Thromboxane A2 receptor [10]),AC50 (Thromboxane A2 receptor [11])
CO[C@H]1/C=C/O[C@@]2(C)Oc3c(C)c(O)c4c(O)c(c(/C=N/N5CCN(C)CC5)c(O)c4c3C2=O)NC(=O)/C(C)=C\C=C\[C@H](C)[C@H](O)[C@@H](C)[C@@H](O)[C@@H](C)[C@H](OC(C)=O)[C@@H]1C [RIFAMPIN],9.6 µM,> 30 µM,–,–,–,–,–,–,–,–,–,–,–,–,–,–
CCCC(CCC)C(=O)O [VALPROIC ACID],> 300 µM,–,> 30 µM,> 30 µM,> 30 µM,> 30 µM,> 30 µM,> 30 µM,> 30 µM,> 30 µM,> 30 µM,> 30 µM,> 30 µM,> 30 µM,> 30 µM,> 30 µM
C[C@H](CCC(=O)O)[C@H]1CC[C@H]2[C@@H]3[C@@H](O)C[C@@H]4C[C@H](O)CC[C@]4(C)[C@H]3CC[C@]12C [URSODIOL],95 µM,> 30 µM,–,–,–,–,–,–,–,–,–,–,–,–,–,–
COc1cc2nc(N3CCN(C(=O)C4CCCO4)CC3)nc(N)c2cc1OC (stereo not given) [TERAZOSIN],> 300 µM,–,22.9 µM,11.8 µM,> 30 µM,> 30 µM,> 10 µM,> 30 µM,> 30 µM,> 30 µM,> 30 µM,> 30 µM,> 30 µM,> 30 µM,> 30 µM,> 30 µM
CN1C(C(=O)Nc2ccccn2)=C(O)c2ccccc2S1(=O)=O [PIROXICAM],200 µM,> 30 µM,> 30 µM,> 30 µM,> 30 µM,> 30 µM,> 30 µM,> 30 µM,> 30 µM,> 30 µM,> 30 µM,–,–,> 30 µM,> 30 µM,> 30 µM
CC(C(=O)O)c1ccc2c(c1)[nH]c1ccc(Cl)cc12 (stereo not given) [CARPROFEN],120 µM,> 30 µM,–,–,–,–,–,–,–,–,–,–,–,–,–,–
O=C1CN(/N=C/c2ccc(-c3ccc([N+](=O)[O-])cc3)o2)C(O)=N1 [DANTROLENE],35 µM,> 30 µM,–,–,–,–,–,–,–,–,–,–,–,–,–,–
CN(C)CCc1c[nH]c2ccc(Cn3cncn3)cc12 [RIZATRIPTAN],> 300 µM,> 30 µM,–,–,–,–,–,–,–,–,–,–,–,–,–,–
C[C@]12C=CC(=O)N[C@@H]1CC[C@@H]1[C@@H]2CC[C@]2(C)[C@@H](C(=O)Nc3cc(C(F)(F)F)ccc3C(F)(F)F)CC[C@@H]12 [DUTASTERIDE],14 µM,> 30 µM,–,–,–,–,–,–,–,–,–,–,–,–,–,–
CC(C)Cc1ccc(C(C)C(=O)O)cc1 (stereo not given) [IBUPROFEN],> 300 µM,–,> 30 µM,> 30 µM,> 30 µM,> 30 µM,> 30 µM,> 30 µM,> 30 µM,> 30 µM,> 30 µM,–,–,> 30 µM,> 30 µM,> 30 µM
CC(C)c1nc(N(C)S(C)(=O)=O)nc(-c2ccc(F)cc2)c1/C=C/[C@@H](O)C[C@@H](O)CC(=O)O [ROSUVASTATIN],160 µM,> 30 µM,–,–,–,–,–,–,–,–,–,–,–,–,–,–
CC(N)C12CC3CC(CC(C3)C1)C2 (stereo not given) [RIMANTADINE],> 300 µM,> 30 µM,–,–,–,–,–,–,–,–,–,–,–,–,–,–
C=CC[C@@H]1/C=C(\C)C[C@H](C)C[C@H](OC)[C@H]2O[C@@](O)(C(=O)C(=O)N3CCCC[C@H]3C(=O)O[C@H](/C(C)=C/[C@@H]3CC[C@@H](O)[C@H](OC)C3)[C@H](C)[C@@H](O)CC1=O)[C@H](C)C[C@@H]2OC [TACROLIMUS ANHYDROUS],11 µM,> 30 µM,–,–,–,–,–,–,–,–,–,–,–,–,–,–
